Experiments:
[1] = Convulsant activity (observation of seizures in injected mice); conditions: mouse, in vivo, read-out: Convulsive Activity CD50
Procedure: Convulsant activity of test compounds is assessed by monitoring injected mice by monitoring seizures by observing for the onset of myoclonic twitches, generalized clonic seizures and tonic seizures.

[2] = test system: pentylenetetrazol (PTZ) seizures in mice; assay: Pentylenetetrazol Seizure Threshold Test (PTZ); type: in vivo, mouse (female CF-1); conditions: Mus musculus, 0.5 h, ip, 30 min before pentylenetetrazol 85 mg/kg ip, read-out: Convulsant Challenge ED50, PTZ
Procedure: Pentylenetetrazol Seizure Threshold Test (PTZ)
Anticonvulsant screening was accomplished by methods based on those of Swinyard and Woodhead using female CF-1 strain mice. […] The animals were placed in isolation cages and observed for the next 30 minutes for the presence or absence of a seizure. A threshold convulsion is defined as one episode of clonic spasms that persists for at least a 5-sec period.

[3] = test system: maximal electroshock (MES) seizures in mice; assay: Maximal Electroshock Seizure Test (MES); type: in vivo; conditions: Mus musculus, 0.5 h, ip, 30 min before electroshock 50 mA 0.2 sec, read-out: Convulsant Challenge ED50, MES
Procedure: Maximal Electroshock Seizure Test (MES)
Test compounds were dissolved in 30% polyethylene glycol and given by intraperitoneal (ip) injections in a volume of 0.01 mL/g of body weight. […] Corneal electrodes were applied to the eyes, and an electrical stimulus consisting of a 60-Hz alternating current of 50 mA was delivered for 0.2 sec. The animals were held by hand and released at the time of stimulation for observation of the seizure. Abolition of the hindleg tonic extension component was taken as the endpoint for this test.

neurotoxicity in mice = assay: Rotorod Test for Toxicity (neurotoxicity); type: in vivo, mouse; conditions: ip, 30 min
Procedure: (§1) Rotorod Test for Toxicity
(§2) This test is used in mice to assess neurotoxicity. Mice were placed on a 1 in. diameter rod, which rotates at 6 rpm, and tested for maintenance of their equilibrium for 10 min. All mice were pre-tested before a test substance is given. Test compounds are dissolved in 30% polyethylene glycol and given by intraperitoneal (ip) injections in a volume of 0.01 mL/g of body weight. […] This test also measures sedative effect of the compound tested. […] 21, 1985.

[4] = Rotorod Test for Toxicity (neurotoxicity); type: in vivo, mouse; conditions: mouse, in vivo, mice, ip, 30 min
Procedure: as §1, §2

convulsant seizures = conditions: in vivo; cited from earlier work
GABAA receptor = assay: Potentiation of GABA currents in cultured rat hippocampal neurons (GABAA receptor electrophysiology test, whole-cell patch clamp); type: cell-based, rat (Sprague-Dawley)
Procedure: Hippocampal Cell Culture Methods
Under halothane anaesthesia, 1 day old female Sprague-Dawley rats were sacrificed by rapid decapitation and the hippocampi were dissected, minced and incubated in 3 mL of Leibovitz's L-15 containing 1 mg/mL papain and 0.2 mg/mL bovine serum albumin (BSA) for 20 min. at 37° C. The papain solution was removed and the hippocampi were triturated with pasteur pipettes in growth medium. The resulting suspension was centrifuged through 2 mL of medium containing 10 mg/mL trypsin inhibitor and 10 mg/mL BSA. The cells were resuspended into growth medium and plated, 2.5×10^5 cells/dish, on a monolayer of cortical glial cells in 35 mm plastic culture dishes. The culture dishes were pretreated with poly-L-lysine followed by plating of glial cells harvested from the cortices of 2-6 day postnatal rats four days prior to neuron plating. […]
Medium in the culture dishes was replaced with an extracellular solution containing: 140 mM NaCl, 3 mM KCl, 10 mM HEPES, 5 mm MgCl2, and 5.5 mM glucose. Neurons were recorded using the whole cell configuration of the patch clamp technique, (Hamil P O, Marty A, Neher E, Sakmann B, Sakmann J F (1981) "Improved patch-clamp techniques for high resolution current recordings from cells and cell-free membrane patches" Pfluegers Arch., 391, 85-100.) and the neuronal membrane was clamped to a potential of 130 mV. […]

[5] = test system: anxiety in mice (plus-maze); assay: Anxiolytic plus-maze test; type: in vivo, mouse (male NIH Swiss); conditions: for Time spent on Plus-Maze Open Arms (% of Control): mice, ip, 30 min, 5 min test
Text: A modification of the plus-maze test (Lister R G (1987) "The use of a plus-maze to measure anxiety in the mouse" Psychopharmacology, 92, 180-185.) was used to measure the anxiolytic activity of the compounds of this invention in mice. The plus-maze apparatus used in the test consisted of four 30 cm×5 cm arms, two of which were enclosed by 16 cm high walls while the other two were unwalled. The four arms radiated out from a 5×5 cm central platform. The entire maze was elevated 34 cm on legs. The floor parts of the maze were made of wood painted black. The walls were clear plexiglass.
Male mice of the NIH Swiss strain are used in the test which is carried out in a room with no distractions. Test compounds were dissolved in 30% polyethylene glycol and given by intraperitoneal (ip) injections in a volume of 0.01 mL/g of body weight. […] During each 5 minute test, the number of entries to open arms and closed arms and the amount of time spent on each were recorded. A mouse has entered an arm when all four feet are on the arm. Each mouse was used only once. The anxiolytic dose of a test compound is that dose which causes a significant increase in the amount of time the test mouse spends in the open arms of the plus-maze in comparison to the amount of time a control mouse not receiving a test compound spends in the open arms of the maze.

sedation in mice = conditions: 100 mg/kg; cited from earlier work

`CC1(C)CCC(=O)N1` [5,5-Dimethyl-2-pyrrolidinone] showed a CD50 (convulsant dose, 50%) [1] of 387 mg/kg.
With `O=C1NCCC1Cc1ccccc1` (stereo not drawn) [3-Phenylmethyl-2-pyrrolidinone, 3-phenylmethyl-2-pyrrolidinone] the ED50 [2] was 71 mg/kg, the ED50 [3] was 41 mg/kg and the “Toxicity TD50” value (neurotoxicity in mice) was 144 mg/kg.
Compound `O=C1NCCCC1Cc1ccccc1` (stereo not drawn) [3-Phenylmethyl-2-piperidinone, 3-phenylmethyl-2-piperidinone] has an ED50 [2] of 85 mg/kg, an ED50 [3] of 42 mg/kg and a TD50 at 0.5 h [4] of 294 mg/kg.
`CCC1CCCNC1=O` (stereo not drawn) [3-Ethyl-2-Piperidinone, reference compound] gave an ED50 [2] of 339 mg/kg and a TD50 at 0.5 h [4] of 382 mg/kg.
`CC1(C)CNC(=O)C1(C)C` [3,3,4,4-Tetramethyl-2-pyrrolidinone] gave a CD50 (convulsant dose, 50%) [1] of 32 mg/kg.
For `CCC1(C)CNC(=O)C1` (stereo not drawn) [4-Ethyl-4-Methyl-2-pyrrolidinone, 4-ethyl-4-methyl-2-pyrrolidinone, reference compound], the ED50 [2] was 327 mg/kg, the ED50 [3] was over 300 mg/kg and the TD50 at 0.5 h [4] was over 300 mg/kg. The “anticonvulsant activity reported in literature” value (convulsant seizures) was “much less active”.
`CCC1(C)CCCNC1=O` (stereo not drawn) [3-Ethyl-3-Methyl-2-Piperidinone, 3-ethyl-3-methyl-2-piperidinone] showed an ED50 [2] of 162 mg/kg, an ED50 [3] of 198 mg/kg and a TD50 at 0.5 h [4] of 382 mg/kg.
With `O=C1CCCN1` [2-Pyrrolidinone, reference compound] the ED50 [2] was over 900 mg/kg, the ED50 [3] was over 600 mg/kg and the “Toxicity TD50” value (neurotoxicity in mice) was over 900 mg/kg.
`CCC1(Cc2ccccc2)CCCNC1=O` (stereo not drawn) [3-Ethyl-3-phenylmethyl-2-piperidinone, 3-ethyl-3-phenylmethyl-2-piperidinone] showed an ED50 [2] of 61 mg/kg, an ED50 [3] of 79 mg/kg and a TD50 at 0.5 h [4] of 102 mg/kg.
For `CC1CCNC1=O` (stereo not drawn) [3-Methyl-2-pyrrolidinone, reference compound], the ED50 [2] was over 900 mg/kg, the ED50 [3] was over 750 mg/kg and the TD50 at 0.5 h [4] was about 900 mg/kg.
`CC1CCCNC1=O` (stereo not drawn) [3-Methyl-2-Piperidinone, reference compound] gave an ED50 [2] of over 600 mg/kg, an ED50 [3] of over 600 mg/kg and a TD50 at 0.5 h [4] of over 600 mg/kg.
With `CCC1(CC)CCNC1=O` [3,3-Diethyl-2-pyrrolidinone] the “% Potentiation Relative to Control (N)” value (GABAA receptor; compound 1 mM, 3 μM GABA, mean ± SEM, percent of control response (100%)) was 274 ± 64%, the “enhancement of GABA-mediated chloride ion currents” value (GABAA receptor; cultured rat hippocampal neurons) was “more effectively than the previously described α-ethyl-α-methyl-γ-thiobutyrolactone” and the ED50 [2] was 46 mg/kg. The ED50 [3] was 174 mg/kg, the “Toxicity TD50” value (neurotoxicity in mice) was 260 mg/kg and the “anxiolytic activity” value ([5]; compared to α-ethyl-α-methyl-γ-thiobutyrolactone, Table 3) was “significantly stronger anxiolytic activity”. The “Time spent on Plus-Maze Open Arms (% of Control)” value ([5]; dose 100 mg/kg) was 179% and the “Time spent on Plus-Maze Open Arms (% of Control)” value ([5]; dose 175 mg/kg) was 253%.
In the case of `CCC1CC(C)(C)NC1=O` (stereo not drawn) [3-Ethyl-5,5-dimethyl-2-pyrrolidinone], the CD50 (convulsant dose, 50%) [1] is reported as 106 mg/kg.
`CCC1(CC)CCCNC1=O` [3,3-Diethyl-2-piperidinone] showed an ED50 [2] of 39 mg/kg, an ED50 [3] of 56 mg/kg and a TD50 at 0.5 h [4] of 177 mg/kg. For the same compound, the “sedative activity reported in literature” value (sedation in mice) was “weak sedative activity”.
In the case of `CC1(C)CCSC1=O` [α,α-dimethyl-y-thiobutyrolactone], the ED50 [2] is reported as over 500 mg/kg.
For `O=C1CCCCN1` [2-Piperidinone, reference compound], the ED50 [2] was over 600 mg/kg and the TD50 at 0.5 h [4] was over 600 mg/kg.
In the case of `CCC1(C)CCN(C)C1=O` (stereo not drawn) [1,3-Dimethyl-3-ethyl-2-pyrrolidinone], the ED50 [2] is reported as 259 mg/kg and the TD50 at 0.5 h [4] is reported as 520 mg/kg.
Compound `CC1(C)CNC(=O)C1` [4,4-Dimethyl-2-pyrrolidinone, reference compound] has an ED50 [2] of 600 mg/kg and a TD50 at 0.5 h [4] of over 600 mg/kg.
In the case of `CCC1(CC)CC(C)(C)NC1=O` [3,3-Diethyl-5,5-dimethyl-2-pyrrolidinone], the CD50 (convulsant dose, 50%) [1] is reported as 75 mg/kg.
`CC1(Cc2ccccc2)CCCNC1=O` (stereo not drawn) [3-Methyl-3-phenylmethyl-2-piperidinone, 3-methyl-3-phenylmethyl-2-piperidinone] showed an ED50 [2] of 56 mg/kg, an ED50 [3] of 49 mg/kg and a TD50 at 0.5 h [4] of 131 mg/kg.
Compound `CC1(C)CCNC1=O` [3,3-Dimethyl-2-pyrrolidinone, 3,3-dimethyl-2-pyrrolidinone, reference compound] has an ED50 [2] of 708 mg/kg, an ED50 [3] of over 600 mg/kg and a TD50 at 0.5 h [4] of 900 mg/kg. The “anticonvulsant activity reported in literature” value (convulsant seizures) was “no anticonvulsant activity”.

— patent US5776959A, “Anticonvulsant and anxiolytic lactam and thiolactam derivatives” (priority 1995, dated 1998)
